This note sets out measurements from US12144365B2, “Emulsions and derivatives for infusing hydrophobic active agents into an edible product” (priority 2021, dated 2024).

This data set in a line: Potency loss of actives infused into isomalt based candy at 300° F. The class given is physicochemical.
For `CCCCCc1cc(O)c2c(c1)OC(C)(C)[C@@H]1CCC(C)=C[C@@H]21` [THC, tetrahydrocannabinol, reference compound], the “Potency loss %: 300° F. for 5 minutes, Infused by Quillaja extract emulsion” value was −15%; the “Potency loss %: 300° F. for 5 minutes, Infused by gum acacia emulsion” value was −8%; the “Potency loss %: 300° F. for 15 minutes, Infused by Quillaja extract emulsion” value is listed as −25%; the “Potency loss %: 300° F. for 15 minutes, Infused by gum acacia emulsion” value was −16%.

For the compound `C=CC(=C)CCC=C(C)C` [Myrcene, myrcene], the “Potency loss %: 300° F. for 5 minutes, Infused by Quillaja extract emulsion” value is recorded as −26%; the “Potency loss %: 300° F. for 5 minutes, Infused by gum acacia emulsion” value is on record as −10%; the “Potency loss %: 300° F. for 15 minutes, Infused by Quillaja extract emulsion” value was −51%; the “Potency loss %: 300° F. for 15 minutes, Infused by gum acacia emulsion” value is listed as −15%.

With `C=C(C)[C@H]1CC=C(C)CC1` [Limonene, limonene], the “Potency loss %: 300° F. for 5 minutes, Infused by Quillaja extract emulsion” value is −37%; the “Potency loss %: 300° F. for 5 minutes, Infused by gum acacia emulsion” value is −12%; the “Potency loss %: 300° F. for 15 minutes, Infused by Quillaja extract emulsion” value is on record as −69%; the “Potency loss %: 300° F. for 15 minutes, Infused by gum acacia emulsion” value is reported as −17%.

Take `CCCCCc1cc(O)c2c(c1)OC(C)(C)c1ccc(C)cc1-2` [CBN, cannabinol]: the “Potency loss %: 300° F. for 5 minutes, Infused by Quillaja extract emulsion” value is −1%; the “Potency loss %: 300° F. for 5 minutes, Infused by gum acacia emulsion” value came out at 0%; the “Potency loss %: 300° F. for 15 minutes, Infused by Quillaja extract emulsion” value is reported as −1%; the “Potency loss %: 300° F. for 15 minutes, Infused by gum acacia emulsion” value is reported as 0%.

On to `C=C(C)[C@@H]1CCC(C)=C[C@H]1c1c(O)cc(CCCCC)cc1O` [CBD, cannabidiol, reference compound], for which the “Potency loss %: 300° F. for 5 minutes, Infused by Quillaja extract emulsion” value is on record as −5%; the “Potency loss %: 300° F. for 5 minutes, Infused by gum acacia emulsion” value was −3%; the “Potency loss %: 300° F. for 15 minutes, Infused by Quillaja extract emulsion” value is recorded as −4%; the “Potency loss %: 300° F. for 15 minutes, Infused by gum acacia emulsion” value is recorded as −2%.
